Test results published in US20260138958A1, “SUBSTITUTED N-PHENYLURACILS AND SALTS THEREOF, AND USE THEREOF AS HERBICIDAL ACTIVE SUBSTANCES” (Bayer Aktiengesellschaft, priority 2022, published 2026).

Assays:
Type in all cases: in vivo
[1] = tested on: Digitaria sanguinalis (DIGSA); experiment: Post-emergence herbicidal action, greenhouse pot test
Method: (§1) Seeds of monocotyledonous and dicotyledonous weeds and crop plants were placed in sandy loam in plastic or wood-fibre pots, covered with soil and cultivated in a greenhouse under controlled growth conditions. 2 to 3 weeks after sowing, the test plants were treated at the one-leaf stage. The compounds of the invention, formulated in the form of wettable powders (WP) or as emulsion concentrates (EC), were then sprayed onto the green parts of the plants as aqueous suspension or emulsion with addition of 0.5% additive at a water application rate of 600 l/ha (converted). After the test plants had been kept in the greenhouse under optimum growth conditions for about 3 weeks, the activity of the preparations was rated visually in comparison to untreated controls. For example, 100% activity=the plants have died, 0% activity=like control plants.

[2] = tested on: Pharbitis purpurea (PHBPU); experiment: as above
Method: as §1

Viola tricolor (VIOTR) = experiment: as above
Method: as §1

[3] = tested on: Amaranthus retroflexus (AMARE); experiment: as above
Method: as §1

[4] = tested on: Tripleurospermum inodorum (MATIN); experiment: as above
Method: as §1

[5] = tested on: Abutilon theophrasti (ABUTH); experiment: as above
Method: as §1

Setaria viridis (SETVI) = experiment: as above
Method: as §1

Veronica persica (VERPE) = experiment: as above
Method: as §1

[6] = tested on: Polygonum convolvulus (POLCO); experiment: as above
Method: as §1

[7] = tested on: Echinochloa crus-galli (ECHCG); experiment: as above
Method: as §1

Bassia scoparia (KCHSC) = experiment: as above
Method: as §1

[8] = tested on: Triticum aestivum (TRZAS); experiment: Post-emergence crop plant compatibility, greenhouse pot test; settings: crop plant, post-emergence, 1.25 g/ha
Method: as §1
The observed effects on selected crop plants are reported here in comparison to the untreated controls (values in %).

[9] = tested on: Alopecurus myosuroides (ALOMY); experiment: Post-emergence herbicidal action, greenhouse pot test
Method: as §1

Lolium rigidum (LOLRI) = experiment: as above
Method: as §1

Cn1c(C(F)(F)F)cc(=O)n(-c2cc(Oc3cc(F)ccc3OCC(=O)OCC3CC3)c(Br)cc2F)c1=O [I.24-1]
Post-emergence effect at 1.25 g/ha against DIGSA in % ([1]; 1.25 g/ha): 80% | Post-emergence effect at 5 g/ha against DIGSA in % [1]: 100% | Post-emergence effect at 20 g/ha against DIGSA in % [1]: 100% | Post-emergence effect at 1.25 g/ha against PHBPU in % [2]: 80% | Post-emergence effect at 5 g/ha against PHBPU in % [2]: 100% | Post-emergence effect at 20 g/ha against PHBPU in % [2]: 100% | Post-emergence effect at 5 g/ha against VIOTR in % (Viola tricolor (VIOTR)): 100% | Post-emergence effect at 20 g/ha against VIOTR in % (Viola tricolor (VIOTR)): 100% | Post-emergence effect at 1.25 g/ha against AMARE in % [3]: 100% | Post-emergence effect at 5 g/ha against AMARE in % [3]: 100% | Post-emergence effect at 20 g/ha against AMARE in % [3]: 100% | Post-emergence effect at 20 g/ha against MATIN in % [4]: 80% | Post-emergence effect at 1.25 g/ha against ABUTH in % [5]: 100% | Post-emergence effect at 5 g/ha against ABUTH in % [5]: 100% | Post-emergence effect at 20 g/ha against ABUTH in % [5]: 100% | Post-emergence effect at 1.25 g/ha against SETVI in % (Setaria viridis (SETVI)): 90% | Post-emergence effect at 5 g/ha against SETVI in % (Setaria viridis (SETVI)): 100% | Post-emergence effect at 20 g/ha against SETVI in % (Setaria viridis (SETVI)): 100% | Post-emergence effect at 5 g/ha against VERPE in % (Veronica persica (VERPE)): 100% | Post-emergence effect at 20 g/ha against VERPE in % (Veronica persica (VERPE)): 100% | Post-emergence effect at 20 g/ha against POLCO in % [6]: 100% | Post-emergence effect at 5 g/ha against ECHCG in % [7]: 80% | Post-emergence effect at 20 g/ha against ECHCG in % [7]: 100% | Post-emergence effect at 1.25 g/ha against KCHSC in % (Bassia scoparia (KCHSC)): 100% | Post-emergence effect at 5 g/ha against KCHSC in % (Bassia scoparia (KCHSC)): 100% | Post-emergence effect at 20 g/ha against KCHSC in % (Bassia scoparia (KCHSC)): 100% | Post-emergence effect at 1.25 g/ha against TRZAS in % [8]: 20%

Cn1c(C(F)(F)F)cc(=O)n(-c2cc(Oc3ccccc3OCC(=O)OCC3CC34CCC4)c(Cl)cc2F)c1=O (stereo not drawn) [I.7-19]
Post-emergence effect at 5 g/ha against DIGSA in % [1]: 100% | Post-emergence effect at 20 g/ha against DIGSA in % [1]: 100% | Post-emergence effect at 20 g/ha against ALOMY in % [9]: 100% | Post-emergence effect at 1.25 g/ha against PHBPU in % [2]: 80% | Post-emergence effect at 5 g/ha against PHBPU in % [2]: 100% | Post-emergence effect at 20 g/ha against PHBPU in % [2]: 100% | Post-emergence effect at 1.25 g/ha against VIOTR in % (Viola tricolor (VIOTR)): 100% | Post-emergence effect at 5 g/ha against VIOTR in % (Viola tricolor (VIOTR)): 100% | Post-emergence effect at 20 g/ha against VIOTR in % (Viola tricolor (VIOTR)): 100% | Post-emergence effect at 1.25 g/ha against AMARE in % [3]: 100% | Post-emergence effect at 5 g/ha against AMARE in % [3]: 100% | Post-emergence effect at 20 g/ha against AMARE in % [3]: 100% | Post-emergence effect at 20 g/ha against MATIN in % [4]: 100% | Post-emergence effect at 20 g/ha against LOLRI in % (Lolium rigidum (LOLRI)): 80% | Post-emergence effect at 1.25 g/ha against ABUTH in % [5]: 100% | Post-emergence effect at 5 g/ha against ABUTH in % [5]: 100% | Post-emergence effect at 20 g/ha against ABUTH in % [5]: 100% | Post-emergence effect at 1.25 g/ha against SETVI in % (Setaria viridis (SETVI)): 100% | Post-emergence effect at 5 g/ha against SETVI in % (Setaria viridis (SETVI)): 100% | Post-emergence effect at 20 g/ha against SETVI in % (Setaria viridis (SETVI)): 100% | Post-emergence effect at 1.25 g/ha against VERPE in % (Veronica persica (VERPE)): 90% | Post-emergence effect at 5 g/ha against VERPE in % (Veronica persica (VERPE)): 100% | Post-emergence effect at 20 g/ha against VERPE in % (Veronica persica (VERPE)): 100% | Post-emergence effect at 5 g/ha against POLCO in % ([6]; 5 g/ha): 100% | Post-emergence effect at 20 g/ha against POLCO in % [6]: 100% | Post-emergence effect at 5 g/ha against ECHCG in % [7]: 100% | Post-emergence effect at 20 g/ha against ECHCG in % [7]: 100% | Post-emergence effect at 1.25 g/ha against KCHSC in % (Bassia scoparia (KCHSC)): 80% | Post-emergence effect at 5 g/ha against KCHSC in % (Bassia scoparia (KCHSC)): 80% | Post-emergence effect at 20 g/ha against KCHSC in % (Bassia scoparia (KCHSC)): 100% | Post-emergence effect at 1.25 g/ha against TRZAS in % [8]: 10%

Cn1c(C(F)(F)F)cc(=O)n(-c2cc(Oc3ccccc3OCC(=O)OC3CCCCCC3)c(Cl)cc2F)c1=O [reference compound]
ECHCG (efficacy in %) ([7]; Table B5 comparison, application rate 1.25 g/ha): 80%

Cn1c(C(F)(F)F)cc(=O)n(-c2cc(Oc3ccccc3OCC(=O)OCC3(C)CC3)c(Cl)cc2F)c1=O [I.7-5]
Post-emergence effect at 5 g/ha against DIGSA in % [1]: 100% | Post-emergence effect at 20 g/ha against DIGSA in % [1]: 100% | Post-emergence effect at 5 g/ha against ALOMY in % ([9]; 5 g/ha): 80% | Post-emergence effect at 20 g/ha against ALOMY in % [9]: 100% | Post-emergence effect at 1.25 g/ha against PHBPU in % [2]: 100% | Post-emergence effect at 5 g/ha against PHBPU in % [2]: 100% | Post-emergence effect at 20 g/ha against PHBPU in % [2]: 100% | Post-emergence effect at 1.25 g/ha against VIOTR in % (Viola tricolor (VIOTR)): 100% | Post-emergence effect at 5 g/ha against VIOTR in % (Viola tricolor (VIOTR)): 100% | Post-emergence effect at 20 g/ha against VIOTR in % (Viola tricolor (VIOTR)): 100% | Post-emergence effect at 1.25 g/ha against AMARE in % [3]: 100% | Post-emergence effect at 5 g/ha against AMARE in % [3]: 100% | Post-emergence effect at 20 g/ha against AMARE in % [3]: 100% | Post-emergence effect at 5 g/ha against MATIN in % ([4]; 5 g/ha): 100% | Post-emergence effect at 20 g/ha against MATIN in % [4]: 100% | Post-emergence effect at 1.25 g/ha against ABUTH in % [5]: 100% | Post-emergence effect at 5 g/ha against ABUTH in % [5]: 100% | Post-emergence effect at 20 g/ha against ABUTH in % [5]: 100% | Post-emergence effect at 1.25 g/ha against SETVI in % (Setaria viridis (SETVI)): 100% | Post-emergence effect at 5 g/ha against SETVI in % (Setaria viridis (SETVI)): 100% | Post-emergence effect at 20 g/ha against SETVI in % (Setaria viridis (SETVI)): 100% | Post-emergence effect at 1.25 g/ha against VERPE in % (Veronica persica (VERPE)): 100% | Post-emergence effect at 5 g/ha against VERPE in % (Veronica persica (VERPE)): 100% | Post-emergence effect at 20 g/ha against VERPE in % (Veronica persica (VERPE)): 100% | Post-emergence effect at 20 g/ha against POLCO in % [6]: 100% | Post-emergence effect at 5 g/ha against ECHCG in % [7]: 100% | Post-emergence effect at 20 g/ha against ECHCG in % [7]: 100% | Post-emergence effect at 1.25 g/ha against KCHSC in % (Bassia scoparia (KCHSC)): 100% | Post-emergence effect at 5 g/ha against KCHSC in % (Bassia scoparia (KCHSC)): 100% | Post-emergence effect at 20 g/ha against KCHSC in % (Bassia scoparia (KCHSC)): 100%

Cn1c(C(F)(F)F)cc(=O)n(-c2cc(Oc3ccccc3OCC(=O)OC3CCCCC3)c(Cl)cc2F)c1=O [a-29, reference compound]
VERPE (efficacy in %) (Veronica persica (VERPE); Table B4 comparison, application rate 1.25 g/ha): 90%

CC(OC(=O)COc1ccccc1Oc1cc(-n2c(=O)cc(C(F)(F)F)n(C)c2=O)c(F)cc1Cl)C1CCCCC1 (stereo not drawn) [I.7-15]
Post-emergence effect at 20 g/ha against DIGSA in % [1]: 100% | Post-emergence effect at 20 g/ha against ALOMY in % [9]: 80% | Post-emergence effect at 5 g/ha against PHBPU in % [2]: 100% | Post-emergence effect at 20 g/ha against PHBPU in % [2]: 100% | Post-emergence effect at 5 g/ha against VIOTR in % (Viola tricolor (VIOTR)): 100% | Post-emergence effect at 20 g/ha against VIOTR in % (Viola tricolor (VIOTR)): 100% | Post-emergence effect at 1.25 g/ha against AMARE in % [3]: 100% | Post-emergence effect at 5 g/ha against AMARE in % [3]: 100% | Post-emergence effect at 20 g/ha against AMARE in % [3]: 100% | Post-emergence effect at 20 g/ha against ABUTH in % [5]: 100% | Post-emergence effect at 5 g/ha against SETVI in % (Setaria viridis (SETVI)): 100% | Post-emergence effect at 20 g/ha against SETVI in % (Setaria viridis (SETVI)): 100% | Post-emergence effect at 1.25 g/ha against VERPE in % (Veronica persica (VERPE)): 80% | Post-emergence effect at 5 g/ha against VERPE in % (Veronica persica (VERPE)): 100% | Post-emergence effect at 20 g/ha against VERPE in % (Veronica persica (VERPE)): 100% | Post-emergence effect at 20 g/ha against POLCO in % [6]: 100% | Post-emergence effect at 5 g/ha against ECHCG in % [7]: 90% | Post-emergence effect at 20 g/ha against ECHCG in % [7]: 100% | Post-emergence effect at 5 g/ha against KCHSC in % (Bassia scoparia (KCHSC)): 100% | Post-emergence effect at 20 g/ha against KCHSC in % (Bassia scoparia (KCHSC)): 100% | Post-emergence effect at 1.25 g/ha against TRZAS in % [8]: 20%
